Source: PMC6054628

Columns and labels:
[1] = Head-to-tail native chemical ligation in two-module microfluidic flow: SEAon peptide amide rearranged to SEAE thioester (pH 1, TCEP, 60 min, 90 or 65 C), then MPAA (0.4 M)/Na2HPO4 (0.2 M) pH 7.3 cyclisation onto N-terminal Cys, 4 min; settings: 30-membered ring, water (phosphate buffer, MPAA, TCEP; decane segmented carrier), 0.6 mM, 37.0 °C, 0.067 h, 2 steps, scale: %
[2] = Head-to-tail native chemical ligation in two-module microfluidic flow: SEAon peptide amide rearranged to SEAE thioester (pH 1, TCEP, 60 min, 90 or 65 C), then MPAA (0.4 M)/Na2HPO4 (0.2 M) pH 7.3 cyclisation onto N-terminal Cys; settings: 30-membered ring, water (phosphate buffer, MPAA, TCEP; decane segmented carrier; 6 M Gn.HCl for 4l-p), 0.6 mM, 37.0 °C, 0.067 h, 2 steps
[3] = from CC[C@H](C)[C@H](NC(=O)[C@@H](N)CS)C(=O)N[C@@H](CC(C)C)C(=O)N[C@@H](CCCCN)C(=O)N[C@@H](CCC(=O)O)C(=O)NCC(=O)N[C@H](C(=O)N[C@@H](Cc1c[nH]cn1)C(=O)NCC(=O)N[C@H](C(=O)SCCNCCS)C(C)C)C(C)C
[4] = from CC[C@H](C)[C@H](NC(=O)[C@@H](N)CS)C(=O)N[C@@H](CC(C)C)C(=O)N[C@@H](CCCCN)C(=O)N[C@@H](CCC(=O)O)C(=O)NCC(=O)N[C@H](C(=O)N[C@@H](Cc1c[nH]cn1)C(=O)NCC(=O)N1CCC[C@H]1C(=O)SCCNCCS)C(C)C

Row | Compound | ring closure, conversion by HPLC [1, 3] | ring closure, yield over several steps [2, 3] [%] | ring closure, conversion by HPLC [1, 4] | ring closure, yield over several steps [2, 4] [%]
1 | CC[C@H](C)[C@@H]1NC(=O)[C@H](CS)NC(=O)[C@H](C(C)C)NC(=O)CNC(=O)[C@H](Cc2c[nH]cn2)NC(=O)[C@H](C(C)C)NC(=O)CNC(=O)[C@H](CCC(=O)O)NC(=O)[C@H](CCCCN)NC(=O)[C@H](CC(C)C)NC1=O [H-CILKEGVHGV-SEAon (via SEAE thioester)] | 73 | 46 |  | 
2 | CC[C@H](C)[C@@H]1NC(=O)[C@H](CS)NC(=O)[C@@H]2CCCN2C(=O)CNC(=O)[C@H](Cc2c[nH]cn2)NC(=O)[C@H](C(C)C)NC(=O)CNC(=O)[C@H](CCC(=O)O)NC(=O)[C@H](CCCCN)NC(=O)[C@H](CC(C)C)NC1=O [H-CILKEGVHGP-SEAon (via SEAE thioester)] |  |  | 70 | 38
